The results in this text go back to ChEMBL document CHEMBL1156024, “The first Hes1 dimer inhibitors from natural products” (Bioorg Med Chem Lett, 2009).

pIC50: −log10 of the molar value. Active and inactive are the calls of the source. The calls are words filed in the database; no cut-off is given here.

The target of one experiment is T1, Transcription factor HES-1 (Mus musculus) (UniProt P35428).
T1 sequence (whole entry): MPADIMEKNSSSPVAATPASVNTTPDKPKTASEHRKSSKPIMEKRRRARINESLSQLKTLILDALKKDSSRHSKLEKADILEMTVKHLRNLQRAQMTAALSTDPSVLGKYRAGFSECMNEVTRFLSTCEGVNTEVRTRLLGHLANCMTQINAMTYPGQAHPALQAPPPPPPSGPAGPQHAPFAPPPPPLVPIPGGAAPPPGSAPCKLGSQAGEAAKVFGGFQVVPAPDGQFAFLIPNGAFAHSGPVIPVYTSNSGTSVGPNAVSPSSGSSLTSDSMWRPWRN
In words: Inhibition of Cy3-labeled mouse recombinant Hes1 (3-281) dimer formation expressed in Escherichia coli at 100 uM by microplate-based assay.
Conditions: not given
Turning to `COC(=O)c1[nH]c(C(=O)OC)c(-c2c[nH]c3ccccc23)c1-c1c[nH]c2ccccc12`, the inhibition (commonly the change of the read-out against control, counted positive when it falls) was “inactive”.
Still for that read-out and setting: the entry for `COC(=O)c1[nH]c(C(=O)O)c(-c2c[nH]c3ccccc23)c1-c1c[nH]c2ccccc12` is “inactive”.
Still for that read-out and setting: the result for `O=C1NCc2c1c1c3ccccc3[nH]c1c1[nH]c3ccccc3c21` reads “inactive”.

Another experiment deals with T2, Transcription factor HES-1 (Mus musculus, UniProt P35428).
T2 sequence (P35428 whole entry): T1 sequence (whole entry)
As to the kind of experiment: Inhibition of Cy3-labeled mouse recombinant Hes1 (3-281) dimer formation expressed in Escherichia coli by microplate-based assay.
Conditions: not given
On to `COc1cc([C@H]2c3c(cc(OC)c(O)c3OC)C[C@@H](CO)[C@@H]2CO[C@@H]2OC[C@@H](O)[C@H](O)[C@H]2O)cc(OC)c1O` [LYONISIDE], for which the pIC50 (commonly the negative decadic logarithm of the IC50, by convention in mol/L) is 4.32.
Turning to `COc1cc([C@@H]2c3c(cc(OC)c(O)c3OC)C[C@H](CO)[C@H]2CO[C@@H]2OC[C@@H](O)[C@H](O)[C@H]2O)cc(OC)c1O` [NUDIPOSIDE], the pIC50 was 5.02.
The same measure, in the same setting: the result for `CCCC(=O)/C=C/C1=C(O)C(=O)c2cc(O)c(O)cc2C1=O` [LINDBLADIONE] reads 5.39.
Same read-out and setting: the result for `COC(=O)c1[nH]c(C(=O)OC)c(-c2c[nH]c3ccc(O)cc23)c1-c1c[nH]c2ccccc12` [LYCOGARUBIN B] reads 4.78; that for `O=C(O)c1[nH]c(C(=O)O)c(-c2c[nH]c3ccccc23)c1-c1c[nH]c2ccccc12` [LYCOGALIC ACID A], 5.22; that for `C/C=C1/[C@H]2OC=C(C(=O)O)[C@H]1CC(=O)OC[C@H](c1ccc(O)c(O)c1)OC[C@H]1O[C@@H](O2)[C@H](O)[C@@H](O)[C@@H]1O`, 5.11.

The target in a further experiment is T1, Transcription factor HES-1 (Mus musculus). The settings on record: C3H 10T1/2, 50 uM.
Description: Inhibition of mouse Hes1-mediated suppression of basic helix-loop-helix activator genes in C3H10T1/2 cells at 50 uM by luciferase transactivation assay
The molecule `CCCC(=O)/C=C/C1=C(O)C(=O)c2cc(O)c(O)cc2C1=O` [LINDBLADIONE] gave an inhibition of 60%.
The molecule `O=C(O)c1[nH]c(C(=O)O)c(-c2c[nH]c3ccccc23)c1-c1c[nH]c2ccccc12` [LYCOGALIC ACID A] yielded an inhibition of 60%.
